One data set has as its target T1, human PPARγ1 (Homo sapiens, UniProt P37231).
T1 construct: expressed in transfected cells; host or cells: CHO-K1 cells stably transfected with pVgRXR2-hPPARγ and reporter plasmid pGL3-4ERPP-TK neo
T1 sequence (P37231 1-477 isoform P37231-2): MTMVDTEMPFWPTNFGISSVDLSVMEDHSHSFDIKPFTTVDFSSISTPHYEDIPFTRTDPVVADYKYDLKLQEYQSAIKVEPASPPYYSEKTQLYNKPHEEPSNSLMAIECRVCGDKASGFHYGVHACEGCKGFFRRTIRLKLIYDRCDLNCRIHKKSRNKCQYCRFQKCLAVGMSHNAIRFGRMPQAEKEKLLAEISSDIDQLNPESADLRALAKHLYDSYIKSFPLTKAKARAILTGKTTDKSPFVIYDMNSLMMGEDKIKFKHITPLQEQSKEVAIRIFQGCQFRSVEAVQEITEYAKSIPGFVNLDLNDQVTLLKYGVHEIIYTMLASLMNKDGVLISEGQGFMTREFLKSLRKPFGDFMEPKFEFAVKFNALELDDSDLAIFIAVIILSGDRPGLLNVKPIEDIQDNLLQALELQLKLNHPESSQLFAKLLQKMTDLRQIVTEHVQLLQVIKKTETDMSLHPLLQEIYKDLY
T1 sequence (P19793 1-462 partner): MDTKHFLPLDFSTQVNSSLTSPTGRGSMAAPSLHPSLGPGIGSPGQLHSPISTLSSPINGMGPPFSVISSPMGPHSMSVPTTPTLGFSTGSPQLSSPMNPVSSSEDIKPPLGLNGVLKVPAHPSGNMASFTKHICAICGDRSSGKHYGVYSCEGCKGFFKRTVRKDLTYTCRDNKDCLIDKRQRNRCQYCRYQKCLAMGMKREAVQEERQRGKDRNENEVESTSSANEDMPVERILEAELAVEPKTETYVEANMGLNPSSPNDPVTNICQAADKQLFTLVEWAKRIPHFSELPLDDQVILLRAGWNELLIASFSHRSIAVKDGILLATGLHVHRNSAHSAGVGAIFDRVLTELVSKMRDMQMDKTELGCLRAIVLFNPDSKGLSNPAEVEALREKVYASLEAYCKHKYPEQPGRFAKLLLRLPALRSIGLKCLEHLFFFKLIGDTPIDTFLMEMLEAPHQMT
The experiment in a line: Human PPARγ1 antagonist assay (luciferase reporter in PPARγ:RXRα:4ERPP/CHO-K1 cells). The format is cell-based. Conditions: test compound 10^−6 M, 10 nM compound A as stimulant, luciferase activity, 24 hrs, read-out: Inhibitory rate (%). The protocol: PPARγ:RXRα:4ERPP/CHO-K1 cells (obtained in Reference Example 5a) cultured in Ham's F-12 medium (GIBCO, Inc.) supplemented with 10% fetal bovine serum (TRACE SCIENTIFIC, Ltd.) were seeded in a well of a 96 well white plate at 2×10^4 cells/well and cultured under 37° C. 5% CO2 conditions for 24 hrs. After removal of the medium, Ham's F-12 medium (GIBCO) containing 60 μl of 0.1% BSA (not containing fatty acid) (Wako Pure Chemical Industries, Ltd.), 20 μl of 10^−5M or 10^−6 M test compound and 20 μl of compound A having a final concentration of 10 nM as a stimulant were added, and the cells were cultured under 37° C. 5% CO2 conditions for 24 hrs. After removal of the medium, 40 μl of Pickagene LT7.5 (Wako Pure Chemical Industries, Ltd.) 2-fold diluted with HBSS (HANKS' BALANCED SALT SOLUTION) (BIO WHITTAKER Inc.) was added. After stirring, luciferase activity was measured using 1420 ARVO Multilabel Counter (Wallac, Inc.). In addition, a test similar to the above was conducted for the non-use of the aforementioned test compound alone and for the non-use of the aforementioned test compound and compound A to determine the luciferase activity.
The human PPARγ1 antagonistic activity of the test compound was evaluated using percentages (% inhibition) wherein the luciferase activity when 10 nM compound A alone was added was 0%, and the luciferase activity when the test compound and compound A were not added was 100%. The concentration of the test compound was 10^−5 M for the compounds of Example 42 and 315 and 10^−6 M for other test compounds.
After a CHO-K1 cell cultured in a cell culture flask (150 cm^2) (produced by Corning Costar Corporation, USA) containing Ham's F-12 medium (produced by Life Technologies, Inc., USA) supplemented with 10% fetal bovine serum (produced by Life Technologies, Inc., USA) was detached by treating with 0.5 g/L trypsin-0.2 g/L EDTA (ethylenediaminetetraacetic acid) (produced by Life Technologies, Inc., USA), the cell was washed with PBS (phosphate-buffered saline) (produced by Life Technologies, Inc., USA), centrifuged (1000 rpm, 5 minutes), and then suspended in PBS. Subsequently, the DNA was introduced into the cells under the conditions shown below using GENE PULSER (produced by Bio-Rad Laboratories, USA).
Namely, to a cuvette having a 0.4 cm gap, added were 8×10^6 cells and 10 μg of plasmid pVgRXR2-hPPARγ obtained in Reference Example 4a and 10 μg of reporter plasmid pGL3-4ERPP-TK neo obtained in Reference Example 2a, which was subjected to electroporation at the voltage of 0.25 kV under the capacitance of 960 μF. Subsequently, the cell was transferred into a Ham's F-12 medium containing 10% fetal bovine serum and cultured for 24 hours and then the cells were detached again and centrifuged, and then suspended in HAM F12 medium containing 10% fetal bovine serum supplemented with 500 μg/ml of GENETICIN (produced by Life Technologies, Inc., USA) and 250 μg/ml of ZEOCIN (produced by Invitrogen, USA). The obtained suspension was diluted to the density of 10^4 cells/ml and inoculated to a 96-well plate (produced by Corning Costar Corporation, USA), which was cultured in a CO2 gas incubator at 37° C., whereby obtaining a GENETICIN- and ZEOCIN-resistant transformant. Subsequently, after the transformant cell line thus obtained was cultured in a 24-well plate (produced by Corning Costar Corporation, USA), selected was a cell line in which the luciferase was expressed and induced, i.e., PPARγ:RXRα:4ERPP/CHO-K1 cell by the addition of 10 μM pioglitazone hydrochloride.
(A reporter such as luciferase makes a cellular process visible.)

Molecules are shown by their SMILES.

Consider three molecules from patent publication US7368578B2, “Five-membered heterocyclic compounds” (Takeda Pharmaceutical Company Limited, priority 2002, dated 2008).

On to `COc1cc(COc2nn(-c3ccccc3)cc2/C=C/c2csc(C(C)(C)C)n2)ccc1OCc1nc(-c2ccc(CC(=O)O)cc2)oc1C` [Example 359, {4-[4-({4-[({4-[(E)-2-(2-tert-butyl-1,3-thiazol-4-yl)ethenyl]-1-phenyl-1H-pyrazol-3-yl}oxy)methyl]-2-methoxyphenoxy}methyl)-5-methyl-1,3-oxazol-2-yl]phenyl}acetic acid], for which, at human PPARγ1, the inhibition at 1 µM came to 111%.

For the molecule `COc1cc(COc2nn(-c3ccccc3)cc2/C=C/c2coc(C(C)(C)C)n2)ccc1OCc1nc(-c2ccc(CC(=O)O)cc2)oc1C` [Example 371, {4-[4-({4-[({4-[(E)-2-(2-tert-butyl-1,3-oxazol-4-yl)ethenyl]-1-phenyl-1H-pyrazol-3-yl}oxy)methyl]-2-methoxyphenoxy}methyl)-5-methyl-1,3-oxazol-2-yl]phenyl}acetic acid], the inhibition at 1 µM at human PPARγ1 turned out to be 114%.

The term melting point denotes the temperature, or range, at which the solid turns liquid. The molecule `CCc1nc(/C=C/c2cn(-c3ccccc3)nc2OCc2ccc(OCc3nc(-c4cccc(-c5nnn[nH]5)c4)oc3C)c(OC)c2)cs1` [Example 373, 5-{3-[4-({4-[({4-[(E)-2-(2-ethyl-1,3-thiazol-4-yl)ethenyl]-1-phenyl-1H-pyrazol-3-yl}oxy)methyl]-2-methoxyphenoxy}methyl)-5-methyl-1,3-oxazol-2-yl]phenyl}-1H-tetrazole] gave a melting point of 144 to 147 °C. Besides, on human PPARγ1, the inhibition at 1 µM worked out at 112%.
